Results from patent publication US20240165043A1, “COMPOSITIONS FOR THE TREATMENT OF A DISEASE OF THE URINARY TRACT AND TREATMENT OF A DISEASE INVOLVING THE INTRACELLULAR DELIVERY OF THE PARTICLE OR A MEDICAMENT CONTAINED THEREIN” (UCL BUSINESS LTD, priority 2018, published 2024).

Legend:
[1] = system: HBLAK-derived bladder organoids; assay: Cell toxicity assay (LDH release); assay type: cell-based, human; details: CapFuran 2 mg/ml; equivalent free nitrofurantoin 200 mg/ml as printed; 60 minutes; N=6
Experimental: A colorimetric […] (LDH) assay kit (Thermo Scientific) was used to measure potential cell damage from CapFuran or nitrofurantoin. The procedure was carried out as directed by the manufacturer. HBLAK-derived bladder organoids were grown for 14 days then exposed to 1000 μl of culture media (control) or 1000 μl of culture media containing CapFuran 1 mg/ml; CapFuran 2 mg/ml; 100 μg/ml unencapsulated nitrofurantoin; 200 μg/ml Nitrofurantoin; 100 μl of 10× lysis buffer (maximum LDH control); or culture medium containing 10% ultra-pure water (to measure spontaneous LDH release). Experiments were carried out in triplicates. All organoids were subsequently incubated for 60 minutes at […] in 5% CO2. After incubation, 50 μl of medium from the apical chamber of each treated organoid was transferred to 3 wells of a flat-bottomed […] (Corning). […] To quantify the amount of LDH released, the 96 well plate was read using a colorimetric sphectrophotometer (Biochrom EZ Read 400) at an absorbance of 492 nm and 650 nm. Microsoft Excel was used to subtract the background reading from the LDH reading before calculating cytotoxicity in % using the following formula: % Cytotoxicity=Treatment associated LDH release−Spontaneous LDH release×100 Maximum LDH activity−Spontaneous LDH release

[2] = system: human urothelial organoid model; assay: Cellular uptake of cargo, three-dimensional bladder organoid; assay type: cell-based; details: two hours of treatment; free FITC at equivalent amount (14 ug/mL)
Experimental: The three-dimensional bladder organoid model has been described (Horsley et al, 2017, https://doi.org/10.1101/152033). Briefly, organoids were created as follows. In preparation for organotypic culture, previously frozen cells were thawed and expanded on 9 cm culture dishes as above. Once 70-80% confluent, the cells were washed briefly with calcium- and magnesium-free phosphate buffered saline (PBS, Sigma-Aldrich) and incubated at 37° C. in ˜3 ml of pre-warmed Accutase solution for 2-5 min. The dishes were lightly tapped and detached cells re-suspended in 7 ml of warm CnT-Prime. After centrifugation at 200×g for 5 min, the supernatant was removed and the pellet re-suspended in fresh CnT-Prime. This cell suspension was counted whilst allowing the cells to equilibrate for 3 min at room temperature. […]
The 3D culture inserts were incubated for 3-5 days until 100% confluent. Confluency was determined through the fluorescent staining of 1 insert and visualisation under epi-fluorescence microscopy (see section below). […]
(§1) We performed epi-fluorescence microscopy on an Olympus CX-41 upright microscope, and confocal laser scanning microscopy on Leica SP5 and SP2 microscopes. […] For both still and live imaging, images were processed and analysed using Infinity Capture and Analyze V6.2.0, ImageJ 1.50 h 50 and the Leica Application Suite, Advanced Fluorescence 3.1.0 build 8587 Software.

[3] = system: human bladder epithelial cells (HBLAK); assay: Cellular uptake of cargo, two-dimensional monolayer; assay type: cell-based; details: free FITC at 2.5 mg/mL
Source text: Commercially available human bladder epithelial cells (HBLAK, CelINTec), which are a spontaneously immortalised, non-transformed derivative of progenitor cells that retain the ability to differentiate, were supplied in frozen aliquots containing ˜5×10^5 cells at passage 2 and ˜0.5×10^5 at passage 25 respectively. The progenitor cells had been isolated from bladder trigone biopsies from male patients undergoing surgery for benign prostatic hyperplasia. HBLAK cells were used up until passage 40-50.
Thawed cells were seeded (˜300 cell clumps/cm^2) into pre-warmed and equilibrated low-calcium, high-bovine pituitary extract, primary epithelial medium (CnT-Prime, Cell N Tec) in 9 cm polystyrene dishes and incubated at 37° C. in a humidified incubator under 5% CO2. Culture medium was replaced after overnight incubation to remove residual dimethyl sulfoxide (DMSO). Antibiotics were not added to culture medium at any point due to adverse effects on cytodifferentiation, metabolism and morphology. […]
as §1

Row | Compound | Cytotoxicity (LDH release), mean [1] [%] | FITC penetration through cell layers [2] | FITC staining of cells by free diffusion [3]
1 | O=C1CN(/N=C/c2ccc([N+](=O)[O-])o2)C(=O)N1 [nitrofurantoin] | 6.60 | – | –
2 | fluorescein isothiocyanate [free FITC] | – | negligible penetration | faint green staining to all cells
